Experimental data published in patent US20130337579A1, “Methods for Determining Protein Ligand Binding” (UNIVERSITY OF MARYLAND, COLLEGE PARK, priority 2010, published 2013).

Key:
[1] = target: T1, HisMBP-Alg44PilZ (Pseudomonas aeruginosa, UniProt Q9HY69); test: DRaCALA competition of cold nucleotides with 32P-cdiGMP binding to HisMBP-Alg44PilZ; set-up: species or system P. aeruginosa; conditions: 1 mM cold nucleotide (400-fold molar excess over protein), 4 nM 32P-cdiGMP
T1 construct: His-MBP-Alg44PilZ was varied from 100 μM to 6 nM; made in house; host or cells: E. coli BL21(DE3)
T1 sequence (Q9HY69 16-116): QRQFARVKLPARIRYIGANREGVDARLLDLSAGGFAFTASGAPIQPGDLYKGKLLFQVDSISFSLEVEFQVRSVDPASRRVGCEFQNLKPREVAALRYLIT
Description: FIG. 2. Detection of specific protein-ligand interactions by DRaCALA. (A) DRaCALA images of interactions between purified proteins (20 μM) incubated with 500 nM ^14C-cAMP, 4 nM ^32P-ATP, or 4 nM ^32P-cdiGMP. Protein-ligand mixtures were spotted on nitrocellulose and allowed to dry prior to imaging using a Fuji FLA7100 phosphorimager. Cognate protein-nucleotide combinations are indicated by arrowheads. MBP was used as a negative control. (B) DRaCALA images of competition assays assessing the ability of 1 mM of the indicated cold nucleotides to compete with binding interactions between 4 nM ^32P-cdiGMP and 2.5 μM HisMBP-Alg44PilZ. (C) Graph of fraction bound for each sample in […] with averages indicated by a horizontal bar. NC indicates no competitor. P values were determined by a Student's t-test for significant differences when compared to the no-competitor (NC) control for three independent experiments. For total intensity of each DRaCALA spot in FIGS. 2A and 2B, see Tables 1 and 2, respectively.
Radiolabeled ligands were incubated with each of the proteins and the mixtures were spotted on nitrocellulose. After spreading by capillary action, membranes were dried and quantitated by phosphorimager. […] Each of the radiolabel signals from MBP mixtures was distributed by capillary action (FIG. 2A). […] The specificity of Alg44PilZ binding to cdiGMP was further tested by competition with excess unlabeled nucleotides (400-fold molar excess relative to the Alg44PilZ protein). Alg44PilZ binding to ^32P-cdiGMP was abolished by cdiGMP, but not by cGMP, GMP, GDP, GTP, ATP, CTP or UTP as was previously described (FIG. 2B). The FB for cdiGMP was 0.31±0.07, which was reversed by competition with unlabeled cdiGMP to the background level of 0.04±0.01 (FIG. 2C).
(§1) Protein or whole cell lysates in 1× cdiGMP binding buffer (20 μl) was mixed with 4 nM of radiolabeled nucleotide and allowed to incubate for 10 minutes at room temperature. Radiolabeled nucleotide was competed away by cold nucleotides in concentrations and for times indicated. Purified proteins were tested in technical replicates. Whole cell lysates in FIG. 4 and FIG. 12 were tested in biological triplicates. Whole cell lysates in FIG. 5 were tested in technical replicates. These mixtures were pipetted (2.5-5 μl) onto dry, untreated nitrocellulose (GE Healthcare) in triplicate and allowed to dry completely before quantification. An FLA7100 Fujifilm Life Science Phosphorimager was used to detect luminescence following a 5-minute exposure of blotted nitrocellulose to phosphorimager film. Data was quantified using Fujifilm Multi Gauge software v3.0.

[2] = target: T2, P. aeruginosa Alg44PilZ (His-MBP-Alg44PilZ) (Pseudomonas aeruginosa, UniProt Q9HY69); test: biochemical; type: binding; conditions: 20 μM purified protein; 500 nM 14C-cAMP, 4 nM 32P-ATP or 4 nM 32P-cdiGMP
T2 construct: His-MBP-Alg44PilZ was varied from 100 μM to 6 nM; made in house; host or cells: E. coli BL21(DE3)
T2 sequence (Q9HY69 16-116): as above
Description: DRaCALA exploits the ability of nitrocellulose membranes to preferentially sequester proteins over small molecule ligands. When a mixture of protein and radiolabeled ligand is spotted onto a dry nitrocellulose membrane, protein and bound ligand are immobilized at the site of contact while free ligand is mobilized by capillary action with the liquid phase (FIG. 1A). DRaCALA is a rapid assay, as the capillary action can be completed in less than 5 seconds. […] Because capillary action distributes the unbound ligand throughout the mobile phase, the calculation for the fraction bound (FB) can be corrected for this background (see below for edge effects at the solvent front and annulation of the protein). Therefore, FB is defined by the equation in FIG. 1B, where Iinner is the intensity of signal in the area with protein (inner circle) and Itotal is the total signal of the entire sample (outer circle). The Iinner signal consists of both ligand bound to protein and unbound ligand that has not mobilized beyond the area of the inner circle, which we define as Ibackground. Ibackground can be calculated by subtracting the signal intensity of the Iinner from the total ligand Itotal and adjusting for the relative areas of the inner (Ainner) and outer circles (Atotal) (FIG. 1B).
(§2) Radiolabeled ligands were incubated with each of the proteins and the mixtures were spotted on nitrocellulose. After spreading by capillary action, membranes were dried and quantitated by phosphorimager. […] The specificity of Alg44PilZ binding to cdiGMP was further tested by competition with excess unlabeled nucleotides (400-fold molar excess relative to the Alg44PilZ protein).
Kd can be measured by altering either the protein or ligand concentrations in titration experiments; since DRaCALA detects only the ligand mobility, ligand concentrations can be always held constant. […] Since the assay is completed in less than 5 seconds, DRaCALA can also be used to determine the koff for those protein-ligand complexes with slower off rates. koff was determined for cdiGMP and Alg44PilZ by spotting at the indicated time points after the addition of 1 mM unlabeled cdiGMP to a pre-incubated mixture of Alg44PilZ and ^32P-cdiGMP (FIG. 3C). […] Both edge and annulation effects are explained in FIG. 8. The edge effect is due to evaporation of the solvent during the time of the experiment, and is dependent on the humidity of the local environment around the nitrocellulose support. The evaporation results in a smaller total area (Atotal observed in FIG. 8A) and leads to an increased value in the calculated Ibackground. As a secondary correction for the edge effect, the fraction bound determined for spotted ligand in the absence of protein can be subtracted from all samples in parallel (FIG. 8B).

[3] = target: E. coli NtrB (Escherichia coli, UniProt P0AFB5); test: DRaCALA binding of radiolabeled nucleotides to purified NtrB; conditions: 20 μM purified protein; 500 nM 14C-cAMP, 4 nM 32P-ATP or 4 nM 32P-cdiGMP
Sequence of E. coli NtrB (P0AFB5 whole entry): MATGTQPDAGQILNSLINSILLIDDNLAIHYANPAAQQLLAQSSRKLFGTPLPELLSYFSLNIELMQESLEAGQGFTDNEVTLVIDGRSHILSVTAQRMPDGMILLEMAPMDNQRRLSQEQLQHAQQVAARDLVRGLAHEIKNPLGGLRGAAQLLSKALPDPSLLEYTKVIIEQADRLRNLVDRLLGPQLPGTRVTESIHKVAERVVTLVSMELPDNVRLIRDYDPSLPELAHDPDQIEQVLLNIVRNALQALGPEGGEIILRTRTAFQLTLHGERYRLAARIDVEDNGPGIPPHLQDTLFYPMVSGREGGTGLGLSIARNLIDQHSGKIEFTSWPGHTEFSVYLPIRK
Description: as §2, §1

[4] = target: T3, E. coli CRP (Escherichia coli, UniProt P0ACJ8); test: DRaCALA binding of radiolabeled nucleotides to purified CRP; conditions: 20 μM purified protein; 500 nM 14C-cAMP, 4 nM 32P-ATP or 4 nM 32P-cdiGMP
T3 construct: His; made in house
T3 sequence (P0ACJ8 whole entry): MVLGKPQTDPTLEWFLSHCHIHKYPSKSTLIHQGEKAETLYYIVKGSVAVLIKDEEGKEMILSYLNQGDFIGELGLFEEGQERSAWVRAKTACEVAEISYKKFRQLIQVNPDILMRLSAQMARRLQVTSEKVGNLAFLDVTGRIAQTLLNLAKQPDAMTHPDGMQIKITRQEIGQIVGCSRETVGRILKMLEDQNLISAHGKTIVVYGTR
Description: as §2, §1

Compound | Alg44PilZ binding to 32P-cdiGMP abolished by unlabeled nucleotide [1] | binding to Alg44PilZ (sequestration of radiolabel signal) [2] | binding to NtrB (sequestration of radiolabel signal) [3] | binding to CRP (sequestration of radiolabel signal) [4]
Nc1nc2c(ncn2[C@@H]2O[C@H](COP(=O)(O)O)[C@@H](O)[C@H]2O)c(=O)[nH]1 [GMP] | not |  |  | 
Nc1nc2c(ncn2[C@@H]2O[C@H](COP(=O)(O)OP(=O)(O)OP(=O)(O)O)[C@@H](O)[C@H]2O)c(=O)[nH]1 [GTP] | not |  |  | 
Nc1ncnc2c1ncn2[C@@H]1O[C@H](COP(=O)(O)OP(=O)(O)OP(=O)(O)O)[C@@H](O)[C@H]1O [ATP] | not | not | bound | did not bind
Nc1ccn([C@@H]2O[C@H](COP(=O)(O)OP(=O)(O)OP(=O)(O)O)[C@@H](O)[C@H]2O)c(=O)n1 [CTP] | not |  |  | 
Nc1nc2c(ncn2[C@@H]2O[C@@H]3COP(=O)(O)O[C@H]3[C@H]2O)c(=O)[nH]1 [cGMP] | not |  |  | 
Nc1nc2c(ncn2[C@@H]2O[C@H](COP(=O)(O)OP(=O)(O)O)[C@@H](O)[C@H]2O)c(=O)[nH]1 [GDP] | not |  |  | 
O=c1ccn([C@@H]2O[C@H](COP(=O)(O)OP(=O)(O)OP(=O)(O)O)[C@@H](O)[C@H]2O)c(=O)[nH]1 [UTP] | not |  |  | 
